Columns and labels:
Assay type in all cases: cell-based
[1] = test system: Wnt activity (Sp5-Luc reporter, SW480 colon carcinoma cells); test: Screening assay for Wnt activity: Sp5-Luc reporter gene assay in SW480 cells; conditions: Homo sapiens; for inhibition at 10 µM: 10 μM compound, read-out: percent inhibition at 10 μM (given for EC50 of >10 μM); for EC50: overnight incubation, 10-point dose-response from 10 μM
Method in brief: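 SW480 cells stably carrying Sp5-Luc reporter (eight TCF/LEF sites) plated at 4,000/well in 1% FBS medium with compound (10-point 1:3 series from 10 μM, 0.1% DMSO) overnight at 37 °C. BrightGlo luminescence normalized to DMSO; EC50 by four-parameter fit, else % inhibition at 10 μM.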

SW480 colon cancer cells = test: Cell viability assay (CellTiter-Blue), four days; conditions: Homo sapiens, 96 h; for EC50: CellTiter-Blue cell viability; for inhibition at 10 µM: read-out: percent inhibition at 10 μM (given for EC50 of >10 μM)
Method in brief: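 Approximately 2×10^3 SW480 cells per well are seeded with compound (8 points, threefold steps, top 10 μM) and incubated four days at 37 °C. CellTiter-Blue is then added for about 3 h and fluorescence read. Non-linear regression gives EC50; for values beyond 10 μM, percent inhibition at that concentration is listed.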

[2] = test system: primary human fibroblasts derived from IPF patients (LL29 cells), α-smooth muscle actin (αSMA); test: Inhibition of the fibrotic process: TGF-β1-treated primary human fibroblasts from IPF patients, αSMA staining; conditions: Fibroblast, 96 h, 4 days; for EC50: LL29 fibroblasts from IPF patients, TGF-β1 20 ng/mL, inhibition of fibrotic process; for inhibition at 10 µM: LL29 fibroblasts, TGF-β1 treated, read-out: percent inhibition at 10 μM (given for EC50 of >10 μM)
Method in brief: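 Compound dilutions from 10 μM down to […] are dispensed, LL29 cells added in F12 with 1% FBS, and TGF-β1 (20 ng/mL) follows after 1 h. After 4 days, live-cell αSMA positivity is measured by immunofluorescence and normalized to TGF-β1-treated wells to derive EC50.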

SMILES: Cc1cn(-c2ccnc3[nH]c(-c4n[nH]c5ccc(-c6cncc(NC(=O)C(C)(C)C)c6)nc45)nc23)cn1 [Compound 204, N-(5-(3-(7-(4-methyl-1H-imidazol-1-yl)-3H-imidazo[4,5-b]pyridin-2-yl)-1H-pyrazolo[4,3-b]pyridin-5-yl)pyridin-3-yl)pivalamide]
- inhibition at 10 µM [1]: 12.2%
- EC50 [1]: > 10 µM
- EC50 (SW480 colon cancer cells): > 10 µM
- inhibition at 10 µM (SW480 colon cancer cells): 0%
- EC50 [2]: > 10 µM
- inhibition at 10 µM [2]: 38.8%

SMILES: Cc1cn(-c2ccnc3[nH]c(-c4n[nH]c5ccc(-c6cncc(CN7CCCC7)c6)nc45)nc23)cn1 [Compound 210, 3-(7-(4-methyl-1H-imidazol-1-yl)-3H-imidazo[4,5-b]pyridin-2-yl)-5-(5-(pyrrolidin-1-ylmethyl)pyridin-3-yl)-1H-pyrazolo[4,3-b]pyridine]
- inhibition at 10 µM [1]: 31.5%
- EC50 [1]: > 10 µM
- EC50 (SW480 colon cancer cells): > 10 µM
- inhibition at 10 µM (SW480 colon cancer cells): 12.6%
- EC50 [2]: 6.74 µM

SMILES: Cc1cn(-c2ccnc3[nH]c(-c4n[nH]c5ccc(-c6cncc(NC(=O)C7CCC7)c6)nc45)nc23)cn1 [Compound 217, N-(5-(3-(7-(4-methyl-1H-imidazol-1-yl)-3H-imidazo[4,5-b]pyridin-2-yl)-1H-pyrazolo[4,3-b]pyridin-5-yl)pyridin-3-yl)cyclobutanecarboxamide]
- inhibition at 10 µM [1]: 13.9%
- EC50 [1]: > 10 µM
- EC50 (SW480 colon cancer cells): > 10 µM
- inhibition at 10 µM (SW480 colon cancer cells): 2.1%
- EC50 [2]: 6.1 µM

SMILES: CN1CCN(c2ccnc3[nH]c(-c4n[nH]c5ccc(-c6cncc(N)c6)nc45)nc23)CC1 [Compound 227, 5-(3-(7-(4-methylpiperazin-1-yl)-3H-imidazo[4,5-b]pyridin-2-yl)-1H-pyrazolo[4,3-b]pyridin-5-yl)pyridin-3-amine]
- inhibition at 10 µM [1]: 8.2%
- EC50 [1]: > 10 µM
- EC50 (SW480 colon cancer cells): > 10 µM
- inhibition at 10 µM (SW480 colon cancer cells): 0%
- EC50 [2]: > 10 µM
- inhibition at 10 µM [2]: 32.8%

SMILES: CC(C)C(=O)Nc1cncc(-c2ccc3[nH]nc(-c4nc5c(N6CCN(C)CC6)ccnc5[nH]4)c3n2)c1 [Compound 233, N-(5-(3-(7-(4-methylpiperazin-1-yl)-3H-imidazo[4,5-b]pyridin-2-yl)-1H-pyrazolo [4,3-b]pyridin-5-yl)pyridin-3-yl)isobutyramide]
- inhibition at 10 µM [1]: 2.3%
- EC50 [1]: > 10 µM
- EC50 (SW480 colon cancer cells): > 10 µM
- inhibition at 10 µM (SW480 colon cancer cells): 0%
- EC50 [2]: 4.84 µM

SMILES: CN1CCN(c2ccnc3[nH]c(-c4n[nH]c5ccc(-c6cncc(NC(=O)C7CCCC7)c6)nc45)nc23)CC1 [Compound 246, N-(5-(3-(7-(4-Methylpiperazin-1-yl)-3H-imidazo[4,5-b]pyridin-2-yl)-1H-pyrazolo[4,3-b]pyridin-5-yl)pyridin-3-yl)cyclopentanecarboxamide]
- inhibition at 10 µM [1]: 4.2%
- EC50 [1]: > 10 µM
- EC50 (SW480 colon cancer cells): > 10 µM
- inhibition at 10 µM (SW480 colon cancer cells): 0%
- EC50 [2]: 2.24 µM

SMILES: CN1CCN(c2ccnc3[nH]c(-c4n[nH]c5ccc(-c6cncnc6)nc45)nc23)CC1 [Compound 251, 3-(7-(4-Methylpiperazin-1-yl)-3H-imidazo[4,5-b]pyridin-2-yl)-5-(pyrimidin-5-yl)-1H-pyrazolo[4,3-b]pyridine]
- inhibition at 10 µM [1]: 16.5%
- EC50 [1]: > 10 µM
- EC50 (SW480 colon cancer cells): > 10 µM
- inhibition at 10 µM (SW480 colon cancer cells): 0%
- EC50 [2]: 4.36 µM

SMILES: c1cncc(-c2ccc3[nH]nc(-c4nc5cccnc5[nH]4)c3n2)c1 [Compound 256, 3-(3H-imidazo[4,5-b]pyridin-2-yl)-5-(pyridin-3-yl)-1H-pyrazolo[4,3-b]pyridine]
- inhibition at 10 µM [1]: 43.4%
- EC50 [1]: > 10 µM
- EC50 (SW480 colon cancer cells): > 10 µM
- inhibition at 10 µM (SW480 colon cancer cells): 22.2%
- EC50 [2]: > 10 µM
- inhibition at 10 µM [2]: 10.4%

SMILES: O=C(Cc1ccccc1)Nc1cncc(-c2ccc3[nH]nc(-c4nc5cccnc5[nH]4)c3n2)c1 [Compound 262, N-(5-(3-(3H-imidazo[4,5-b]pyridin-2-yl)-1H-pyrazolo[4,3-b]pyridin-5-yl)pyridin-3-yl)-2-phenylacetamide]
- inhibition at 10 µM [1]: 7.6%
- EC50 [1]: > 10 µM
- EC50 (SW480 colon cancer cells): > 10 µM
- inhibition at 10 µM (SW480 colon cancer cells): 5.5%
- EC50 [2]: > 10 µM
- inhibition at 10 µM [2]: 0%

SMILES: CC(C)(C)CC(=O)Nc1cncc(-c2ccc3[nH]nc(-c4nc5cccnc5[nH]4)c3n2)c1 [Compound 268, N-(5-(3-(3H-Imidazo[4,5-b]pyridin-2-yl)-1H-pyrazolo[4,3-b]pyridin-5-yl)pyridin-3-yl)-3,3-dimethylbutanamide]
- inhibition at 10 µM [1]: 1.9%
- EC50 [1]: > 10 µM
- EC50 (SW480 colon cancer cells): > 10 µM
- inhibition at 10 µM (SW480 colon cancer cells): 0%
- EC50 [2]: 7.2 µM

Source: US10329309B2, “3-(3H-imidazo[4,5-B]pyridin-2-yl)-1H-pyrazolo[4,3-B]pyridines and therapeutic uses thereof” (Samumed, LLC, priority 2015, dated 2019)
